Source: patent publication US20050112573A1, “Method of detecting toxic substance” (priority 2001, published 2005)

Tested on: yeast genes (level of expressed mRNA)
Experiment: DNA chip analysis of expressed mRNA of yeast genes after 2 h culture with a toxic chemical substance
Type: cell-based, Saccharomyces cerevisiae S288C
Procedure, shortened: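 Values are treated-to-control fluorescence ratios from a whole-yeast-genome DNA chip (65° C, over 12 h hybridization) using Cy3/Cy5-labelled cDNA from mRNA. Log-phase S288C cells in YPD at 25° C were exposed 2 h to a toxicant at sublethal, growth-inhibiting concentration.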

For HgCl2 [(3)], the “The level of expressed mRNA in the presence of chemical substance/” value (yeast gene YFL010C, ratio to control without chemical substance, 2 h culture) was 1.3, the “The level of expressed mRNA in the presence of chemical substance/” value (yeast gene YFL024C, ratio to control without chemical substance, 2 h culture) was 1.1 and the “The level of expressed mRNA in the presence of chemical substance/The level of expressed mRNA in the absence of chemical substance” value (yeast gene YFL028C) was 0.7. For the same substance, the “The level of expressed mRNA in the presence of chemical substance/” value (yeast gene YFL032W, ratio to control without chemical substance, 2 h culture) was 1.6, the “The level of expressed mRNA in the presence of chemical substance/The level of expressed mRNA in the absence of chemical substance” value (yeast gene YFL043C) was 0.6 and the “The level of expressed mRNA in the presence of chemical substance/in the absence of chemical substance” value (yeast gene YGL035C) was 4.3. The “The level of expressed mRNA in the presence of chemical substance/” value (yeast gene YGL037C, ratio to control without chemical substance, 2 h culture) was 6.5, the “The level of expressed mRNA in the presence of chemical substance/” value (yeast gene YGL047W, ratio to control without chemical substance, 2 h culture) was 1.6 and the “The level of expressed mRNA in the presence of chemical substance/” value (yeast gene YGL053W, ratio to control without chemical substance, 2 h culture) was 1.2. The “The level of expressed mRNA in the presence of chemical substance/” value (yeast gene YGL121C, ratio to control without chemical substance, 2 h culture) was 1.4, the “The level of expressed mRNA in the presence of chemical substance/The level of expressed mRNA in the absence of chemical substance” value (yeast gene YGL158W) was 1.9 and the “The level of expressed mRNA in the presence of chemical substance/” value (yeast gene YGL199C, ratio to control without chemical substance, 2 h culture) was 1.7. The “The level of expressed mRNA in the presence of chemical substance/The level of expressed mRNA in the absence of chemical substance” value (yeast gene YGL229C) was 0.9, the “The level of expressed mRNA in the presence of chemical substance/” value (yeast gene YGR101W, ratio to control without chemical substance, 2 h culture) was 1.2 and the “The level of expressed mRNA in the presence of chemical substance/” value (yeast gene YGR110W, ratio to control without chemical substance, 2 h culture) was 2.2. For the same substance, the “The level of expressed mRNA in the presence of chemical substance/” value (yeast gene YGR130C, ratio to control without chemical substance, 2 h culture) was 0.6, the “The level of expressed mRNA in the presence of chemical substance/The level of expressed mRNA in the absence of chemical substance” value (yeast gene YGR136W) was 1.3 and the “The level of expressed mRNA in the presence of chemical substance/” value (yeast gene YGR154C, ratio to control without chemical substance, 2 h culture) was 2.2. The “The level of expressed mRNA in the presence of chemical substance/The level of expressed mRNA in the absence of chemical substance” value (yeast gene YGR189C) was 1.5, the “The level of expressed mRNA in the presence of chemical substance/The level of expressed mRNA in the absence of chemical substance” value (yeast gene YGR213C) was 1.0 and the “The level of expressed mRNA in the presence of chemical substance/” value (yeast gene YGR221C, ratio to control without chemical substance, 2 h culture) was 0.9. For the same substance, the “The level of expressed mRNA in the presence of chemical substance/The level of expressed mRNA in the absence of chemical substance” value (yeast gene YGR257C) was 0.9, the “The level of expressed mRNA in the presence of chemical substance/in the absence of chemical substance” value (yeast gene YGR287C) was 1.3 and the “The level of expressed mRNA in the presence of chemical substance/The level of expressed mRNA in the absence of chemical substance” value (yeast gene YHR004C) was 0.8. The “The level of expressed mRNA in the presence of chemical substance/The level of expressed mRNA in the absence of chemical substance” value (yeast gene YHR071W) was 0.6, the “The level of expressed mRNA in the presence of chemical substance/” value (yeast gene YHR138C, ratio to control without chemical substance, 2 h culture) was 2.2 and the “The level of expressed mRNA in the presence of chemical substance/The level of expressed mRNA in the absence of chemical substance” value (yeast gene YHR139C) was 6.8. The “The level of expressed mRNA in the presence of chemical substance/The level of expressed mRNA in the absence of chemical substance” value (yeast gene YHR142W) was 2.1, the “The level of expressed mRNA in the presence of chemical substance/” value (yeast gene YHR199C, ratio to control without chemical substance, 2 h culture) was 3.2 and the “The level of expressed mRNA in the presence of chemical substance/” value (yeast gene YIL023C, ratio to control without chemical) was 2.1. The “The level of expressed mRNA in the presence of chemical substance/” value (yeast gene YIL041W, ratio to control without chemical substance, 2 h culture) was 2.1, the “The level of expressed mRNA in the presence of chemical substance/” value (yeast gene YIL087C, ratio to control without chemical substance, 2 h culture) was 3.4 and the “The level of expressed mRNA in the presence of chemical substance/The level of expressed mRNA in the absence of chemical substance” value (yeast gene YIL123W) was 1.2. For the same substance, the “The level of expressed mRNA in the presence of chemical substance/The level of expressed mRNA in the absence of chemical substance” value (yeast gene YIL140W) was 1.5, the “The level of expressed mRNA in the presence of chemical substance/” value (yeast gene YJL057C, ratio to control without chemical substance, 2 h culture) was 1.6 and the “The level of expressed mRNA in the presence of chemical substance/” value (yeast gene YJL066C, ratio to control without chemical substance, 2 h culture) was 1.2. For the same substance, the “The level of expressed mRNA in the presence of chemical substance/in the absence of chemical substance” value (yeast gene YJL070C) was 1.1, the “The level of expressed mRNA in the presence of chemical substance/The level of expressed mRNA in the absence of chemical substance” value (yeast gene YJL073W) was 2.5 and the “The level of expressed mRNA in the presence of chemical substance/” value (yeast gene YJL082W, ratio to control without chemical substance, 2 h culture) was 2.4. For the same substance, the “The level of expressed mRNA in the presence of chemical substance/The level of expressed mRNA in the absence of chemical substance” value (yeast gene YJL089W) was 1.0, the “The level of expressed mRNA in the presence of chemical substance/The level of expressed mRNA in the absence of chemical substance” value (yeast gene YJL116C) was 1.3 and the “The level of expressed mRNA in the presence of chemical substance/” value (yeast gene YJL151C, ratio to control without chemical substance, 2 h culture) was 3.2. For the same substance, the “The level of expressed mRNA in the presence of chemical substance/” value (yeast gene YJL152W, ratio to control without chemical substance, 2 h culture) was 1.8, the “The level of expressed mRNA in the presence of chemical substance/” value (yeast gene YJL161W, ratio to control without chemical substance, 2 h culture) was 1.5 and the “The level of expressed mRNA in the presence of chemical substance/in the absence of chemical substance” value (yeast gene YJL167W) was 1.4. For the same substance, the “The level of expressed mRNA in the presence of chemical substance/” value (yeast gene YJL171C, ratio to control without chemical substance, 2 h culture) was 2.8, the “The level of expressed mRNA in the presence of chemical substance/in the absence of chemical substance” value (yeast gene YJL216C) was 2.2 and the “The level of expressed mRNA in the presence of chemical substance/The level of expressed mRNA in the absence of chemical substance” value (yeast gene YJR004C) was 3.4. The “The level of expressed mRNA in the presence of chemical substance/” value (yeast gene YJR008W, ratio to control without chemical substance, 2 h culture) was 1.2, the “The level of expressed mRNA in the presence of chemical substance/” value (yeast gene YJR054W, ratio to control without chemical) was 0.3 and the “The level of expressed mRNA in the presence of chemical substance/The level of expressed mRNA in the absence of chemical substance” value (yeast gene YJR086W) was 0.8. The “The level of expressed mRNA in the presence of chemical substance/The level of expressed mRNA in the absence of chemical substance” value (yeast gene YKL008C) was 2.0, the “The level of expressed mRNA in the presence of chemical substance/The level of expressed mRNA in the absence of chemical substance” value (yeast gene YKL013C) was 1.4 and the “The level of expressed mRNA in the presence of chemical substance/The level of expressed mRNA in the absence of chemical substance” value (yeast gene YKL039W) was 2.4. The “The level of expressed mRNA in the presence of chemical substance/The level of expressed mRNA in the absence of chemical substance” value (yeast gene YKL041W) was 1.1 and the “The level of expressed mRNA in the presence of chemical substance/” value (yeast gene YKL071W, ratio to control without chemical substance, 2 h culture) was 5.4.
